The subject of this assay is 475296-252-R-J1-PDC spheroid viability. The experiment in a line: Anticancer human tumor 475296-252-R-J1-PDC patient-derived rectal carcinoma cell line growth inhibition [PI3K]. The following applies: spheroids with HUVEC and MSC; for viability, T/C: stronger effect = lower value. Put shortly:
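Complex 3D spheroids (cancer cells + endothelial HUVEC + mesenchymal stem cells); drug pairs of targeted agent x inavolisib/alpelisib/duvelisib/copanlisib; half-log series from ~Cmax, max 10 microM if Cmax unknown; endpoint viability.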

Where [1] appears, read: curve of first compound, second compound 0.0316 µM.
Setting [2] is: curve of first compound, second compound 0.1 µM.
Setting [3] is: curve of first compound, second compound 0.316 µM.
[4] abbreviates: curve of first compound, second compound 1 µM.
Setting [5] is: second compound 0.0316 µM, first compound 0.0316 µM.
The mark [6] stands for this setting: second compound 0.0316 µM, first compound 0.1 µM.
Where [7] appears, read: second compound 0.0316 µM, first compound 0.316 µM.
The mark [8] stands for this setting: second compound 0.0316 µM, first compound 1 µM.
Setting [9] is: second compound 0.0316 µM, first compound 3.16 µM.
Setting [10] is: second compound 0.0316 µM, first compound 10 µM.
The mark [11] stands for this setting: second compound 0.1 µM, first compound 0.0316 µM.
[12] abbreviates: second compound 0.1 µM, first compound 0.1 µM.
Setting [13] is: second compound 0.1 µM, first compound 0.316 µM.
[14] abbreviates: second compound 0.1 µM, first compound 1 µM.
[15] abbreviates: second compound 0.1 µM, first compound 3.16 µM.
Setting [16] is: second compound 0.1 µM, first compound 10 µM.
[17] abbreviates: second compound 0.316 µM, first compound 0.0316 µM.
The mark [18] stands for this setting: second compound 0.316 µM, first compound 0.1 µM.
Setting [19] is: second compound 0.316 µM, first compound 0.316 µM.
The mark [20] stands for this setting: second compound 0.316 µM, first compound 1 µM.
Where [21] appears, read: second compound 0.316 µM, first compound 3.16 µM.
The mark [22] stands for this setting: second compound 0.316 µM, first compound 10 µM.
Where [23] appears, read: second compound 1 µM, first compound 0.0316 µM.
The mark [24] stands for this setting: second compound 1 µM, first compound 0.1 µM.
[25] abbreviates: second compound 1 µM, first compound 0.316 µM.
Where [26] appears, read: second compound 1 µM, first compound 1 µM.
Where [27] appears, read: second compound 1 µM, first compound 3.16 µM.
Setting [28] is: second compound 1 µM, first compound 10 µM.

Values joined by “and” are separate entries in the source; they are usually repeats but may differ in a detail not shown here. Identical values can stand only once. Some results are limits rather than exact numbers.

Data on four compounds can be found in PubChem BioAssay AID1963980 (Molecular Pharmacology Branch, DTP, NCI, 2024).
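Note: spheroids exposed to agents for seven days before readout.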

Consider `C#Cc1c(F)ccc2cc(O)cc(-c3ncc4c(N5CC6CCC(C5)N6)nc(OCC56CCCN5CC(F)C6)nc4c3F)c12` (stereo not given) + CC(Nc1ncnc2nc[nH]c12)c1cc2cccc(Cl)c2c(=O)n1-c1ccccc1, for which the IC50 (in general, the concentration needed to halve the response being measured) runs as follows: under setting [1], more than 10 µM; under setting [2], more than 10 µM; under setting [3], more than 10 µM; under setting [4], 6.37 µM; (curve of first compound, second compound 3.16 µM) 3.95 µM; (curve of first compound, second compound 10 µM) 1.76 µM. Moreover, the viability, T/C (commonly the result in the treated group divided by that in the control group, in per cent) under setting [5] is 94.9%; the viability, T/C under setting [6] was 73.8%; the viability, T/C under setting [7] was 77.2%; the viability, T/C under setting [8] is 71.8%; the viability, T/C under setting [9] is 68.8%; the viability, T/C under setting [10] is 46.7%. Further, the viability, T/C is 91.5% under setting [11]; 96.5% under setting [12]; 79.7% under setting [13]; 71.7% under setting [14]; 68.1% under setting [15]; 54.4% under setting [16]. The viability, T/C under setting [17] was 96.7%; the viability, T/C under setting [18] is 83.3%; the viability, T/C under setting [19] was 79.3%; the viability, T/C under setting [20] is 73.5%; the viability, T/C under setting [21] is 66.9%; the viability, T/C under setting [22] was 47.3%. For the same compound, the viability, T/C runs as follows: under setting [23], 100%; under setting [24], 85.5%; under setting [25], 71.1%; under setting [26], 70.3%; under setting [27], 57.9%; under setting [28], 43.8%. For the same compound, the viability, T/C (second compound 3.16 µM, first compound 0.0316 µM) was 102%; the viability, T/C (second compound 3.16 µM, first compound 0.1 µM) is 88.6%; the viability, T/C (second compound 3.16 µM, first compound 0.316 µM) was 71.7%; the viability, T/C (second compound 3.16 µM, first compound 1 µM) is 61%; the viability, T/C (second compound 3.16 µM, first compound 3.16 µM) was 56%; the viability, T/C (second compound 3.16 µM, first compound 10 µM) was 40.6%. Also, the viability, T/C reads like this: (second compound 10 µM, first compound 0.0316 µM) 95.2%; (second compound 10 µM, first compound 0.1 µM) 81.6%; (second compound 10 µM, first compound 0.316 µM) 68.4%; (second compound 10 µM, first compound 1 µM) 55.4%; (second compound 10 µM, first compound 3.16 µM) 45.3%; (second compound 10 µM, first compound 10 µM) 31.8%.

Take `CC(Cn1ccc(-c2ccc(C#N)c(Cl)c2)n1)NC(=O)c1cc(C(C)O)[nH]n1` (stereo not given) + COc1c(OCCCN2CCOCC2)ccc2c3n(c(=NC(=O)c4cnc(N)nc4)nc12)CCN3: the IC50 is, setting by setting: (curve of first compound, second compound 0.00316 µM) more than 10 µM; (curve of first compound, second compound 0.01 µM) more than 10 µM; under setting [1], more than 10 µM; under setting [2], more than 10 µM; under setting [3], more than 10 µM; under setting [4], more than 10 µM. In addition, the viability, T/C reads like this: (second compound 0.00316 µM, first compound 0.0316 µM) 106%; (second compound 0.00316 µM, first compound 0.1 µM) 99.3%; (second compound 0.00316 µM, first compound 0.316 µM) 103%; (second compound 0.00316 µM, first compound 1 µM) 91.7%; (second compound 0.00316 µM, first compound 3.16 µM) 107%; (second compound 0.00316 µM, first compound 10 µM) 94.7%. The viability, T/C is, setting by setting: (second compound 0.01 µM, first compound 0.0316 µM) 102%; (second compound 0.01 µM, first compound 0.1 µM) 101%; (second compound 0.01 µM, first compound 0.316 µM) 111%; (second compound 0.01 µM, first compound 1 µM) 95.8%; (second compound 0.01 µM, first compound 3.16 µM) 102%; (second compound 0.01 µM, first compound 10 µM) 87.7%. Also, the viability, T/C is 97% under setting [5]; 87.6% under setting [6]; 89.7% under setting [7]; 81.2% under setting [8]; 90.6% under setting [9]; 88.2% under setting [10]. For the same compound, the viability, T/C is, setting by setting: under setting [11], 84.6%; under setting [12], 88.7%; under setting [13], 77.8%; under setting [14], 95.3%; under setting [15], 91.6%; under setting [16], 83%. Also, the viability, T/C is 73.8% under setting [17]; 74% under setting [18]; 73.4% under setting [19]; 71.7% under setting [20]; 79.1% under setting [21]; 67.3% under setting [22]. In addition, the viability, T/C under setting [23] was 65.2%; the viability, T/C under setting [24] is 68.7%; the viability, T/C under setting [25] was 75.8%; the viability, T/C under setting [26] is 62.2%; the viability, T/C under setting [27] was 71%; the viability, T/C under setting [28] is 64%.

For `CC1(C)CCC(CN2CCN(c3ccc(C(=O)NS(=O)(=O)c4ccc(NCC5CCOCC5)c([N+](=O)[O-])c4)c(Oc4cnc5[nH]ccc5c4)c3)CC2)=C(c2ccc(Cl)cc2)C1`, the viability, T/C is 97.2% and 102% (2×) and 99.9% (compound 0.0316 µM); 97% [middle of 4 runs] (compound 0.1 µM); 101% [middle of 4 runs] (compound 0.316 µM); 101% [middle of 4 runs] (compound 1 µM); 101% (2×) and 94.9% and 88% (compound 3.16 µM). Moreover, the IC50 (curve of compound) was more than 10 µM.

On to `CC(C)n1nc(-c2ccc3oc(N)nc3c2)c2c(N)ncnc21`, for which the viability, T/C was 99.6% [middle of 4 runs] (compound 0.000316 µM), 94.3% [middle of 4 runs] (compound 0.001 µM), 93.9% [middle of 4 runs] (compound 0.00316 µM) and 63.1% [middle of 4 runs] (compound 0.1 µM). Moreover, for the setting “curve of compound”, the IC50 was more than 0.1 µM.
